Results as given in paper PMC5487681, “Identification of Antifungal H^+-ATPase Inhibitors with Effect on Plasma Membrane Potential” (Antimicrobial Agents and Chemotherapy, 2017).
≈ marks a conversion by molar mass, not a printed value. Where two headings read alike, the source gives them in different places. Residues, ends and D or L forms follow the SMILES beside them.

Columns and labels:
[1] = tested on: S. cerevisiae; assay: Medium acidification assay, S. cerevisiae; format: cell-based, Saccharomyces cerevisiae; details: 50% inhibition of medium acidification, 12 min, n = 2 to 3
Procedure: (§1) Frozen stocks of C. albicans and S. cerevisiae were transferred to YPD agar plates and incubated overnight at 34°C. On the next day, the cells were suspended and washed twice in 50 mM KCl, pH 6.7, after pelleting of the cells by centrifugation at 3,000 × g for 5 min. The cells were then starved overnight at 4°C in the KCl solution. […] The pH drop was then monitored by determination of the fluorescent signal with excitation at 485 nm and emission at 538 nm on a Fluoroskan Ascent plate reader (Thermo Fisher Scientific) for 12 min. The rate of medium acidification was calculated on the basis of the slope of the drop in fluorescence.

[2] = tested on: Saccharomyces cerevisiae ATCC 9763; assay: microbe, parasite or virus in culture; format: cell-based; details: read-out: MIC for growth inhibition, S. cerevisiae
Procedure: (§2) The following fungal isolates were used: Saccharomyces cerevisiae ATCC 9763, Candida albicans SC5314, Candida parapsilosis ATCC 22019, Candida tropicalis Ct016, Candida glabrata ATCC 90030, Aspergillus fumigatus ATCC 13073, and Aspergillus flavus ATCC MYA-1005. Frozen stocks of yeast isolates in glycerol (final concentration, 20%) were prepared by growing the cells to log phase in YPD medium at 30°C and 150 rpm. Frozen stocks of mold spores were prepared by harvesting spores from 7-day-old potato glucose agar plates in phosphate-buffered saline, 0.1% Tween 80 and aliquoting these spores in the presence of glycerol (final concentration, 20%). The cells were stored at −80°C. The cells or spores were thawed and diluted to a final concentration of 0.5 × 10^5 to 2.5 × 10^5 CFU/ml in sterile Milli-Q H2O. […] The plate was incubated for 20 to 24 h at 34°C (72 h for molds), and the OD490 was measured on a Victor X5 (PerkinElmer) plate reader. Mold growth assay plates were also visually inspected. The MIC was defined as the lowest concentration inhibiting the visual growth of the microorganism. Standard errors were typically below 5%.

[3] = tested on: Aspergillus flavus ATCC MYA-1005; assay: microbe, parasite or virus in culture; format: cell-based; details: read-out: MIC for growth inhibition, A. flavus
Procedure: as §2

[4] = tested on: C. albicans; assay: Medium acidification assay, C. albicans; format: cell-based, Candida albicans
Procedure: as §1

[5] = tested on: Hep-G2 cells; assay: cells; format: cell-based, human
Procedure: In a tissue culture-treated 96-well plate (catalog number 655180; Grenier), 10,000 human hepatocyte Hep-G2 cells (catalog number 85011430; Sigma-Aldrich) were plated in 200 μl growth medium (Eagle minimal essential medium; catalog number M2279; Sigma-Aldrich), 2 mM L-glutamine (catalog number 03-020-1B; Biological Industries), 1% nonessential amino acids (catalog number XC-E1154/100; Biosera), 10% fetal bovine serum (catalog number BI-04-007-1A; Biological Industries) and incubated overnight at 37°C in 5% CO2. On the next day, fresh growth medium plus 2 μl compound in DMSO was added. The plate was incubated for a further 24 h at 37°C in 5% CO2. The medium was replaced with 100 μl freshly prepared 0.5 mg/ml 2,3-bis(2-methoxy-4-nitro-5-sulfophenyl)-5-[(phenylamino)carbonyl]-2H-tetrazolium hydroxide, sodium salt, solution (catalog number X4251; Sigma-Aldrich) in RPMI 1640 medium (catalog number R7509; Sigma-Aldrich) with 3.83 μg/ml phenazine methosulfate (catalog number P9625; Sigma-Aldrich) and incubated for 2 to 3 h at 37°C in 5% CO2. The color reaction was measured on a Victor X5 plate reader (PerkinElmer) by determination of the OD450 and the half-maximal (50%) effective concentration (EC50) was calculated.

[6] = Compound precipitation in the fungal growth medium; format: physicochemical; details: fungal growth medium (RPMI), footnotes of Table 1
Procedure: as §2

[7] = tested on: Candida spp.; assay: Fungal growth inhibition, Candida spp. (text summary of Table 1); format: cell-based; details: 38 μM highest concentration tested for compounds 4 and 8, read-out: MIC for several of the Candida spp. tested
Procedure: as §2

[8] = tested on: C. albicans cells; assay: Intracellular ATP (iATP), C. albicans; format: cell-based, Candida albicans; details: for EC50: Candida albicans, 0.5 h, 30 min, dose response (Fig. 5C), read-out: EC50 of the increase in iATP levels, C. albicans; for Maximum iATP level (per well), C. albicans: highest concentrations of inhibitors tested (Fig. 5C)
Procedure: (§3) S. cerevisiae and C. albicans cells were grown and washed as described above for the membrane potential and integrity assay and resuspended in SG medium (0.7% yeast nitrogen base without amino acids [BD], 50 mM succinic acid adjusted to pH 7 with Trizma base) to OD600 of 0.2 and 0.1, respectively. One hundred microliters of an S. cerevisiae or C. albicans cell suspension and 1 μl compound in DMSO were incubated for 30 min. Twenty-five microliters of the suspension was then transferred to a black 96-well plate containing 25 μl BacTiter-Glo reagent (Promega, Madison, WI) and incubated for 15 min in the dark. The luminescence was read on SpectraMax X5 (Molecular Devices, Sunnyvale, CA) plate reader with a 10 s of shaking and a 0.5 s integration time. Standard curves at 10, 100, and 1,000 nM ATP were performed with every experiment.

[9] = tested on: S. cerevisiae cells; assay: Intracellular ATP (iATP), S. cerevisiae; format: cell-based, Saccharomyces cerevisiae; details: for Effects on iATP levels, in words: S. cerevisiae and C. albicans (Fig. 5A, B), compared to compounds 14, 19 and BM2
Procedure: as §3

[10] = biological target: Ca^2+-ATPase (SERCA1a) (Oryctolagus cuniculus, UniProt P04191); assay: ATP hydrolysis assay, SERCA; format: biochemical, rabbit; details: Table 1; ATP hydrolysis at pH 7.4 (compounds marked b)
[11] = Saccharomyces cerevisiae, 0.2 h
[12] = Saccharomyces cerevisiae, ATCC9763, Table 3
[13] = Candida albicans, 0.2 h, 50% inhibition of medium acidification, 12 min, n = 2 to 3, read-out: IC50 for acidification, C. albicans
[14] = Homo sapiens, HepG2, 24 h, medium with 10% fetal bovine serum, XTT readout, read-out: EC50 for Hep-G2 cells at 24 h

Sequence of Ca^2+-ATPase (SERCA1a) (P04191 1-994 isoform P04191-2): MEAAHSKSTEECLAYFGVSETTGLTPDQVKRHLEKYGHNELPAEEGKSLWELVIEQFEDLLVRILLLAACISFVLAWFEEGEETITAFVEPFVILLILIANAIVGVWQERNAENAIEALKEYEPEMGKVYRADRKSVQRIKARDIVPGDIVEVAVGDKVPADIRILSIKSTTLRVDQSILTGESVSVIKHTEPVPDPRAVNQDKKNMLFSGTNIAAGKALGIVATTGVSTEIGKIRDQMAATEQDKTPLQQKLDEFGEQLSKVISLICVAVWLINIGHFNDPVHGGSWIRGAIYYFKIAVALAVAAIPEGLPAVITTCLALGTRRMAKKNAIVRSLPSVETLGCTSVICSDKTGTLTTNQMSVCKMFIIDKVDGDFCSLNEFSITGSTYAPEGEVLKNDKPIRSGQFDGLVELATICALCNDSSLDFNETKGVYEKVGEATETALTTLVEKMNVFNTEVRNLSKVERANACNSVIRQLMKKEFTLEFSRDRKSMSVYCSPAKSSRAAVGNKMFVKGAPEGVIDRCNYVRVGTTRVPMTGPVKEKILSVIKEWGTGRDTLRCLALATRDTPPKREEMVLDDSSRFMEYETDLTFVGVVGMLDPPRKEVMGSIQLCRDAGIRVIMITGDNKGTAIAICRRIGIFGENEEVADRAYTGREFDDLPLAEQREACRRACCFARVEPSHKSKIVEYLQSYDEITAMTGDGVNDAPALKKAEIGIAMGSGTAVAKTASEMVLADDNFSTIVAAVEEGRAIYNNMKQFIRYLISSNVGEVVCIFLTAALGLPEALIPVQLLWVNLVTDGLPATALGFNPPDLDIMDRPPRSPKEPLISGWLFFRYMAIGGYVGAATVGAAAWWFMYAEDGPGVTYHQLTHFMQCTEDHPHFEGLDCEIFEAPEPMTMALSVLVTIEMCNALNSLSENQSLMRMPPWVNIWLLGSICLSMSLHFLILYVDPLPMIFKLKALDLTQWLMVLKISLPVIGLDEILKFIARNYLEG

SMILES	IC50 [1, 11]	MIC [2, 12]	MIC ([3]; Aspergillus flavus, Table 3)	IC50 [4, 13]	EC50 [5, 14]	Compound precipitation observed in the growth medium at concentrations down to [6]	MIC [7]	other results
O=c1c2ccccc2[se]n1-c1ccccc1 [Ebselen, reference compound]	7.6 µM	7.5 µM (≈ 2.06 µg/mL)	24 µM (≈ 6.58 µg/mL)	9.4 ± 2.1 µM	10.7 ± 7 µM	–	–	IC50 ([4]; Candida albicans, read-out: IC50 for C. albicans, extracellular acidification): 11 µM
CCCCOc1ccc(C2C(C#N)=C(N)Oc3cc(O)ccc32)cc1 (stereo not shown) [Compound 11]	–	–	–	–	–	d Compound precipitation was observed in the growth medium at concentrations down to 48 μM.	> 150 µM	–
O=C1/C(=C/c2ccc(-c3cc(Cl)ccc3Cl)o2)C=C(c2ccccc2)N1c1ccccc1O [Compound 1]	–	–	–	–	–	c Compound precipitation was observed in the growth medium at concentrations down to 15 μM.	> 150 µM	–
CCCCc1nc2sc3c(NCCCN(C)C)nc(SC)nc3c2c2c1CCC2 [Compound 15]	1.7 ± 0.1 µM	1.5 µM (≈ 0.644 µg/mL)	24 µM (≈ 10.3 µg/mL)	1.6 µM	2.8 ± 0.1 µM	–	–	–
COc1ccc(-c2cc(C(=O)Nc3ccc4c(c3)OCCO4)c3ccccc3n2)c(OC)c1 [Compound 8]	–	–	–	–	–	d Compound precipitation was observed in the growth medium at concentrations down to 48 μM.	> 38 µM	–
CCN(CC)CCCNc1nc(SC)nc2c1sc1nc(-c3ccccc3)c3c(c12)CCC3 [Compound 19]	2.3 ± 0.1 µM	3.7 µM (≈ 1.77 µg/mL)	12 µM (≈ 5.73 µg/mL)	2.3 ± 0.5 µM	24.2 ± 0.5 µM	–	–	EC50 [8]: 7 µM; Maximum iATP level (per well), C. albicans [8]: about 500 nM; Toxicity window between C. albicans and Hep-G2 cells ([5]; human, 24 h): 3 fold
CCc1nc2sc3c(NCCCN(C)C)ncnc3c2c2c1CCCC2 [Compound 17]	39.6 ± 10.3 µM	47 µM (≈ 17.4 µg/mL)	> 150 µM	19.1 ± 1.7 µM	5.8 ± 1.1 µM	–	–	Effects on iATP levels, in words [9]: minimal effects
Oc1cccc(Nc2nc(-c3ccc(Cl)c(Cl)c3)cs2)c1 [Compound 7]	–	–	–	–	–	d Compound precipitation was observed in the growth medium at concentrations down to 48 μM.	–	IC50 [10]: 3.8 ± 0.6 µM
CN(C)CCCNc1ncnc2c1sc1nc(N3CCCCC3)c3c(c12)CCCC3 [Compound 16]	7.6 ± 3.4 µM	3.2 µM (≈ 1.36 µg/mL)	47 µM (≈ 20 µg/mL)	3.4 ± 1.6 µM	2.6 ± 0.9 µM	–	–	–
[O]=[V]([O-])([O-])[O-] [Vanadate, reference compound]	–	–	–	–	–	–	–	IC50 [1]: > 40 µM; MIC ([2]; Table 3): >750 µM; MIC ([3]; Table 3): >750 µM; Effects on iATP levels, in words [9]: minimal effects; IC50 ([4]; 50% inhibition of medium acidification, 12 min, n = 2 to 3, read-out: IC50 for acidification, C. albicans): > 40 µM; EC50 ([5]; 24 h, medium with 10% fetal bovine serum, XTT readout, read-out: EC50 for Hep-G2 cells at 24 h): > 500 µM
COc1cccc(Nc2nc(Cl)nc(Nc3cccc(OC)c3)n2)c1 [Compound 9]	–	–	–	–	–	d Compound precipitation was observed in the growth medium at concentrations down to 48 μM.	> 150 µM	–
CC1CCCCN1CC(O)Cn1c(-c2ccccc2)c(-c2ccccc2)c2ccc3ccccc3c21 (stereo not shown) [Compound 4]	–	–	–	–	–	d Compound precipitation was observed in the growth medium at concentrations down to 48 μM.	> 38 µM	–
CCOc1ccc2nc3cc(NC(=O)c4cccc(Br)c4)ccc3c(N)c2c1 [Compound 5]	–	–	–	–	–	f Compound precipitation was observed in the growth medium at concentrations down to 75 μM.	–	–
CCCCc1nc2sc3c(NCCCN(C)C)ncnc3c2c2c1CCCC2 [Compound 14]	11.2 ± 2.7 µM	7.5 µM (≈ 2.98 µg/mL)	75 µM (≈ 29.8 µg/mL)	6.6 ± 2.5 µM	2.3 µM	–	–	iATP levels in the presence of oligomycin, S. cerevisiae ([9]; 30 min, oligomycin A at 40 μM): comparable to those for control cells; Increase in iATP levels compared to untreated control, S. cerevisiae ([9]; 30 min of treatment, species of the BM2 value not given): 200%; Increase in iATP levels compared to untreated control, C. albicans ([8]; 30 min of treatment): 1,500%; EC50 [8]: 13 µM; Maximum iATP level (per well), C. albicans [8]: about 500 nM
COc1ccc(-c2cc(C(=O)Nc3ccc(C(C)C)cc3)c3ccccc3n2)c(OC)c1 [Compound 3]	–	–	–	–	–	e Compound precipitation was observed in the growth medium at concentrations down to 150 μM.	> 150 µM	–
N=C(N)NCCC[C@@H](N)C(=O)N[C@H](CCCNC(=N)N)C(=O)N[C@H](CCCNC(=N)N)C(=O)N[C@H](Cc1ccccc1)C(=O)N[C@H](Cc1c[nH]c2ccccc12)C(=O)N[C@H](Cc1c[nH]c2ccccc12)C(=O)N[C@H](Cc1ccccc1)C(=O)N[C@H](CCCNC(=N)N)C(=O)N[C@H](CCCNC(=N)N)C(=O)N[C@H](CCCNC(=N)N)C(N)=O [BM2, reference compound] (HELM PEPTIDE1{[dR].[dR].[dR].[dF].[dW].[dW].[dF].[dR].[dR].[dR].[am]}$$$$V2.0)	–	–	–	–	–	–	–	MIC ([2]; ATCC 9763): 4.7 µM (≈ 7.62 µg/mL); MIC ([3]; ATCC MYA-1005): >150 µM; Effect on mammalian Hep-G2 cells [5]: no effect; EC50 ([5]; 24 h): > 100 µM
CN(C)CCCNc1ncnc2c1sc1nc(-c3ccccc3)c3c(c12)CCC3 [Compound 18]	12.5 ± 1.1 µM	24 µM (≈ 9.69 µg/mL)	> 75 µM	8.8 ± 0.4 µM	3.6 ± 1.1 µM	–	–	–
